Non-standard residues stand in square brackets, D forms with d. Residues, ends and D or L forms follow the SMILES beside them. *: point of attachment. Cbz = O=C(OCc1ccccc1)*; Dap = NC[C@H](N)C(=O)O
What was measured:
rhinovirus B14 [1] = experiment: Irreversible inhibition of human rhinovirus serotype 14 3C protease assessed as ratio of Kobs/I
Enterovirus = experiment: Antiviral activity against rhinovirus infected in human H1HeLa cells; type: functional; conditions: H1-HeLa
[2] = Cytotoxicity against human MRC5 cells; type: cell-based
[3] = Half life in human plasma; type: ADME, cell-free
[4] = Half life in dog plasma; type: ADME, cell-free, Canis lupus familiaris
[5] = Half life in rat plasma; type: ADME, cell-free
[6] = molecular target: T1, Calpain-1 catalytic subunit (Homo sapiens, UniProt P07384); experiment: Inhibition of human calpain 1 protease using Ac-LLY-AFC as substrate after 1 hr by fluorescence assay
T1 sequence (P07384 whole entry): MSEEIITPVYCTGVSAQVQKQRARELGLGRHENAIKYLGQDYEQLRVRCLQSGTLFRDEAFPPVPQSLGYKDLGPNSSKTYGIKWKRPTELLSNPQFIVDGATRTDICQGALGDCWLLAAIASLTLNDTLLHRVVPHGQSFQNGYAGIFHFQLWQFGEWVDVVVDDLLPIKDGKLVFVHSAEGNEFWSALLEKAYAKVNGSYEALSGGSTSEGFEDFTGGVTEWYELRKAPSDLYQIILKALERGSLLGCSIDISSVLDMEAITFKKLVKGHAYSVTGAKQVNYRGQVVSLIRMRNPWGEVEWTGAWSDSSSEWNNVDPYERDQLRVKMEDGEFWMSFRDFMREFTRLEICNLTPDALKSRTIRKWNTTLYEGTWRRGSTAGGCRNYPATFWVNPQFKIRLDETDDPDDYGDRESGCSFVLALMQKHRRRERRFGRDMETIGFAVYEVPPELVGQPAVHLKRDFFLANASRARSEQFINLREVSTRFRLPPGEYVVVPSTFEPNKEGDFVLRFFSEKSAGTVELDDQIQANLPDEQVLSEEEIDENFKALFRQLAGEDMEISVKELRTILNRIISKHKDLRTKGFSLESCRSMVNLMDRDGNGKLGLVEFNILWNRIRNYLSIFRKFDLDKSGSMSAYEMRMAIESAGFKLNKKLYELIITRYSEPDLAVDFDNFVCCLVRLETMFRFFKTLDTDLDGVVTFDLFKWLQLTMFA

[7] = Binding affinity to human rhinovirus serotype 14 3C protease; parameters: species or system rhinovirus B14
[8] = Reversible inhibition of human rhinovirus serotype 14 3C protease by fluorescence resonance energy transfer assay; parameters: species or system rhinovirus B14
rhinovirus B14 [9] = experiment: Antiviral activity against rhinovirus serotype 14 infected in human H1HeLa cells after 2 days by XTT/PMS dye based assay; type: functional, cell-based; conditions: Rhinovirus B, H1-HeLa, 48 h
[10] = Cytotoxicity against human H1HeLa cells after 2 days by XTT/PMS dye based assay; type: cell-based, H1-HeLa

Question: With `CCOC(=O)/C=C/C(C[C@@H]1CCNC1=O)NC(=O)[C@@H](CC(=O)[C@@H](NC(=O)c1cc(C)on1)C(C)C)Cc1ccc(F)cc1` (stereo partly specified) as the molecule, how does the Ratio (rhinovirus B14 [1]) read?
Answer: 1.47 ×10⁶ /M/s

Question: And the EC90 (Enterovirus)?
Answer: 18 to 261 nM

Question: And the CC50 [2]?
Answer: > 100000 nM

Question: And the half-life [3]?
Answer: > 1 h

Question: What about the half-life [4] of the same molecule?
Answer: > 1 h

Question: And the half-life [5]?
Answer: < 2 min

Question: With `CCCCCC/C=C\CC(=O)N[C@@H](CO)C(=O)N[C@H](C(=O)N[C@@H](CO)[C@@H](O)CC(=O)N[C@H](C(=O)N[C@@H]1/C=C/C(=O)N[C@@H](C(C)C)C(=O)N(C)[C@@H](Cc2ccc(O)cc2)C(=O)OC1)C(C)C)C(C)C` as the molecule, how does the IC50 [6] read?
Answer: 3 to 79 nM

Question: For `CC(=O)NC[C@@H](C=O)NC(=O)[C@H](Cc1ccccc1)NC(=O)[C@H](CC(C)C)NC(=O)OCc1ccccc1` (Cbz-Leu-Phe-[Dap](Ac)-aldehyde), which Ki [7] is on record?
Answer: 6 nM

Question: What does the source list for `CC(C)C[C@H](NC(=O)OCc1ccccc1)C(=O)N[C@@H](Cc1ccccc1)C(=O)N[C@H](/C=C1\CCCOC1=O)CCC(N)=O`?
Answer: Ki [8]: 30 nM; EC50 (rhinovirus B14 [9]): 16000 nM; CC50 at 48 h [10]: > 100000 nM
